Experiments:
[1] = Cytotoxicity against human SH-SY5Y cells assessed as cell viability after 24 hrs by MTT assay; assay type: cell-based; details: read-out: Activity
SH-SY5Y = assay: Cytotoxicity against human SH-SY5Y cells assessed as cell viability after 24 hrs by LDH release assay; assay type: cell-based

Row | SMILES | viability at 24 h [1] | Activity (SH-SY5Y)
1 | CCOc1ccc(Nc2ccc(/C(=C3C=C/C(=[N+](/CC)Cc4cccc(S(=O)(=O)[O-])c4)C=C/3C)c3ccc(N(CC)Cc4cccc(S(=O)(=O)[O-])c4)cc3C)cc2)cc1.[Na+] [BRILLIANT BLUE G] | 19% | Toxic
2 | CCOc1ccc(Nc2ccc(C(=C3C=CC(=[N+](CC)Cc4cccc(S(=O)(=O)[O-])c4)C=C3)c3ccc(N(CC)Cc4cccc(S(=O)(=O)[O-])c4)cc3)cc2)cc1.[Na+] | 99% | Non-Toxic

Reference: ChEMBL document CHEMBL4251568, “A routinely used protein staining dye acts as an inhibitor of wild type and mutant alpha-synuclein aggregation and modulator of neurotoxicity” (Eur J Med Chem, 2018)
